# Assay results: patent US6777411B1, “Fungicide mixtures based on pyride amides and morpholine derivatives or piperidine derivatives” (priority 1997, dated 2004)
# What was measured:
# Puccinia recondita = assay: Curative activity against Puccinia recondita on wheat (wheat leaf rust); format: in vivo; conditions: wheat seedlings "Kanzler", sprayed 1 day after infection, evaluated after 7 days
# Protocol: (§1) Evaluation is carried out by determining the infected leaf areas in percent. These percentages are converted into efficacies. The efficacy (W) is calculated as follows using Abbot's formula: […]
# (§2) α corresponds to the fungal infection of the treated plants in % and β corresponds to the fungal infection of the untreated (control) plants in % An efficacy of 0 means that the infection level of the treated plants corresponds to that of the untreated control plants; an efficacy of 100 means that the treated plants were not infected.
# (§3) Colby formula: E=x+y−x·y/100
# Curative Activity Against Puccinia recondita on Wheat (Wheat Leaf Rust) Leaves of potted wheat seedlings of the variety “Kanzler” were dusted with spores of leaf rust (Puccinia recondita). […] During this time, the spores germinated and the germinal tubes penetrated into the leaf tissue. […] After the spray coating had dried on, the test plants were cultivated in a greenhouse at from 20 to 22° C. and from 65 to 70% of relative atmospheric humidity for 7 days. Thereafter, the extent of rust fungus development on the leaves was determined.
# [1] = system: Erysiphe graminis forma specialis tritici; assay: Activity against powdery mildew of wheat; format: in vivo; conditions: wheat seedlings "Kanzler", sprayed 24 hours before inoculation, evaluated after 7 days
# Protocol: as §1, §2, §3
# Activity Against Powdery Mildew of Wheat
# The test plants were subsequently kept in a greenhouse at 20 to 24° C. and 60 to 90% relative atmospheric humidity. After 7 days, the extent of the mildew development was determined visually in % infection of the total leaf area.
SMILES,Efficacy in % of the untreated control (Puccinia recondita; 16 ppm in the spray liquor) [%],Efficacy in % of the untreated control ([1]; 1 ppm in the spray liquor) [%],Efficacy in % of the untreated control ([1]; 4 ppm in the spray liquor) [%],Efficacy in % of the untreated control (Puccinia recondita; 63 ppm in the spray liquor) [%],Efficacy in % of the untreated control ([1]; 16 ppm in the spray liquor) [%]
"CC(Cc1ccc(C(C)(C)C)cc1)CN1CCCCC1 (stereo not shown) [Compound IIb, fenpropidin]",20,0,30,,
"CCCCCCCCCCCCCN1CC(C)OC(C)C1 (stereo not shown) [Compound IIc, tridemorph]",,,0,0,20
"CC(Cc1ccc(C(C)(C)C)cc1)CN1C[C@@H](C)O[C@@H](C)C1 (stereo partly shown) [Compound IIa, fenpropimorph]",20,0,20,,
O=C(Nc1ccccc1-c1ccc(Cl)cc1)c1cccnc1Cl [Compound I.2],0,0,0,,
O=C(Nc1ccccc1-c1ccc(F)cc1)c1cccnc1Cl [Compound I.1],0,,0,0,0
